Results: patent US7622634B2 (priority 2001, dated 2009)

Experiments:
HmPDR1 = test: Quantitative RT-PCR of HmPDR1 expression in hairy roots; format: cell-based, Hyoscyamus muticus; conditions: 1 mM CdCl2, H2O as a control
Procedure: FIG. 3: HmPDR1 expression is induced by CdCl2. Quantitative RT-PCR analysis of HmPDR1 in total RNA from H. muticus hairy roots treated with 1 mM CdCl2 or H2O as a control. Ethidium bromide-stained rRNA is used as a control. The fold increase in the ratio of HmPDR1 transcript to rRNA fluorescence, relative to the value at time point zero, is given below the panels. Time after elicitation is indicated in hours.
To confirm the postulated relationship between the expression of ABC transporter genes and the CdCl2 induced release of alkaloids we performed an expression analysis of the HmPDR1 gene in CdCl2 treated Hyoscyamus hairy roots (FIG. 3).

tobacco BY-2 cells = conditions: Nicotiana tabacum
wild type yeast = conditions: YPD plates, growth evaluated after two days at 28° C.
Wild type BY-2 cells = conditions: MSST plates, growth evaluated after 15 days at 26° C.
[1] = system: BY-2 cells transformed with pK7WGD2-ScPDR5-US50; test: Hyoscyamine-induced cell death (Evans blue) in the ScPDR5-US50 line; format: cell-based, Nicotiana tabacum; conditions: 30 mM hyoscyamine, US50 lines compared to GUS control line
Procedure: FIG. 2: Hyoscyamine-induced cell death in transformed BY-2 cells. […] Cell death was assayed at two time points (6 hours and 24 hours) by Evans blue staining and is indicated as the fold increase in optical density at OD600 relative to the value at the start of the experiment. Values are the mean of three independent experiments. GUS, US50, W303 and AT represent BY-2 cell lines transformed with pK7WGD2-GUS, pK7WGD2-ScPDR5-US50, pK7WGD2-ScPDR5-W303 and pK7WGD2-AtPDR1 respectively.

[2] = system: BY-2 cell lines expressing the different yeast Pdr5 transporters; conditions: compared to the control GUS-expressing lines
[3] = system: Transgenic BY-2 cells expressing AtPDR1; conditions: compared to the control GUS expressing line
[4] = system: yeast AD3 strain expressing AtPDR1; conditions: YPD plates containing the alkaloid
Pdr5p = Pdr5p (Saccharomyces cerevisiae, UniProt P33302); conditions: Kolaczkowski et al. 1996, 1998; cited from earlier work
Chain of Pdr5p (P33302 whole entry): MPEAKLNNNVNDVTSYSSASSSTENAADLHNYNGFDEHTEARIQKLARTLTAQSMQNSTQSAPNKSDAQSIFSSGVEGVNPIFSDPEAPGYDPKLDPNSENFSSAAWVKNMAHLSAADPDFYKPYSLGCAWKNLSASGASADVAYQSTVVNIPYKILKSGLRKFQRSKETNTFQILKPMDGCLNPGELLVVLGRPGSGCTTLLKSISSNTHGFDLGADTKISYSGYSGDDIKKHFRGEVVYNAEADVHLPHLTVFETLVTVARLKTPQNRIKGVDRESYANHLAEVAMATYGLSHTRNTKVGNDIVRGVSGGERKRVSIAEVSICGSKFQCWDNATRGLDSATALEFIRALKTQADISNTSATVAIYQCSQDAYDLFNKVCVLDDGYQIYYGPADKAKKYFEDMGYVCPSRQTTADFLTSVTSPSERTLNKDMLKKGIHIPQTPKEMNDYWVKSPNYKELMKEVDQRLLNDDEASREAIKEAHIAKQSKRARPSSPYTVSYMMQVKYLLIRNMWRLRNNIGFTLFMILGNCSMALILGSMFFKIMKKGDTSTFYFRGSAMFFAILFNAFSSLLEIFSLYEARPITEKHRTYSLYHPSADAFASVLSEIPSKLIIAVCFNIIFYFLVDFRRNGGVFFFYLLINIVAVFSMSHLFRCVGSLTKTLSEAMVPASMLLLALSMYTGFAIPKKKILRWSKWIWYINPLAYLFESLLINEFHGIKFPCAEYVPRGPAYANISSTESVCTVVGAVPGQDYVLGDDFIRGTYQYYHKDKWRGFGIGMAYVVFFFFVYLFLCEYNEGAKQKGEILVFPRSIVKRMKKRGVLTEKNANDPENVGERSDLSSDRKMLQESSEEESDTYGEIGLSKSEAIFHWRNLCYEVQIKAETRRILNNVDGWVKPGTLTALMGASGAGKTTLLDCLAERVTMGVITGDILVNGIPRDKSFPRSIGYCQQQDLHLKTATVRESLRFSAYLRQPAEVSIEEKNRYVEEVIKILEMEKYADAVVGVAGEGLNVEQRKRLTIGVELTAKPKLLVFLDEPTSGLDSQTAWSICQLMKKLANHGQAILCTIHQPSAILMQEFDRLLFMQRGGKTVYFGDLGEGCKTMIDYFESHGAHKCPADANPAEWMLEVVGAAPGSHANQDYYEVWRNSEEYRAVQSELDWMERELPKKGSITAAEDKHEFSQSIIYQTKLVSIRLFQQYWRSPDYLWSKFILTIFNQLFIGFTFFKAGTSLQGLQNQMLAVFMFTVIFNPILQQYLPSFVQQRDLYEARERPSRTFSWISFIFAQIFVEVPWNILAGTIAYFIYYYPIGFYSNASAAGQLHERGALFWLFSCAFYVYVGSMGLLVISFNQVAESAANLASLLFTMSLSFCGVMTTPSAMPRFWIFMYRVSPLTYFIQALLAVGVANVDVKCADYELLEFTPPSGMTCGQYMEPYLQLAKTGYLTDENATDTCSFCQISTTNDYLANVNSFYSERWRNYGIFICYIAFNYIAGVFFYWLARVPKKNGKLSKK

SMILES: [Cl][Cd][Cl] [CdCl2]
- HmPDR1 expression (HmPDR1): upregulated

SMILES: CN1[C@@H]2CC[C@H]1C[C@@H](OC(=O)[C@H](CO)c1ccccc1)C2 [hyoscyamine]
- level causing the death of all suspension cultured tobacco cells (tobacco BY-2 cells): 50000 µM
- level tolerated by wild type yeast (wild type yeast): 50 mM
- level tolerated without severe growth problems (Wild type BY-2 cells): 30000 µM
- decrease in hyoscyamine induced cell death [1]: 15%

SMILES: CN1CCCC1c1cccnc1 (stereo not drawn) [nicotine]
- level causing the death of all suspension cultured tobacco cells (tobacco BY-2 cells): 20000 µM
- tolerance in growth performance assay [2]: increased tolerance
- level tolerated by wild type yeast (wild type yeast): 15 mM
- level tolerated without severe growth problems (Wild type BY-2 cells): 3000 µM
- tolerance of AtPDR1 transgenic BY-2 cells [3]: enhanced tolerance
- growth of the pdr5 mutant strain expressing AtPDR1 on the alkaloid [4]: restore the growth

SMILES: CN1[C@@H]2C[C@@H](OC(=O)[C@H](CO)c3ccccc3)C[C@H]1[C@@H]1O[C@@H]12 [scopolamine]
- level tolerated by wild type yeast (wild type yeast): 100 mM

SMILES: CC(=O)O[C@H]1C(=O)[C@@]2(C)[C@H]([C@H](OC(=O)c3ccccc3)[C@]3(O)C[C@H](OC(=O)[C@H](O)[C@@H](NC(=O)c4ccccc4)c4ccccc4)C(C)=C1C3(C)C)[C@]1(OC(C)=O)CO[C@@H]1C[C@@H]2O [taxol]
- substrate for Pdr5p mediated multidrug transport (Pdr5p): substrates

SMILES: CC[C@]1(O)C[C@@H]2CN(CCc3c([nH]c4ccccc34)[C@@](C(=O)OC)(c3cc4c(cc3OC)N(C)[C@H]3[C@@](O)(C(=O)OC)[C@H](OC(C)=O)[C@]5(CC)C=CCN6CC[C@]43[C@@H]65)C2)C1 [vinblastine]
- substrate for Pdr5p mediated multidrug transport (Pdr5p): substrates

SMILES: CC[C@]1(O)C[C@H]2CN(CCc3c([nH]c4ccccc34)[C@@](C(=O)OC)(c3cc4c(cc3OC)N(C=O)[C@H]3[C@@](O)(C(=O)OC)[C@H](OC(C)=O)[C@]5(CC)C=CCN6CC[C@]43[C@@H]65)C2)C1 [vincristine]
- substrate for Pdr5p mediated multidrug transport (Pdr5p): substrates
